Values after ≈ are worked out from the molar mass of the structure shown. Active and inactive are the calls of the source. The calls are words filed in the database; no cut-off is given here. Non-standard residues stand in square brackets, D forms with d. Residues, ends and D or L forms follow the SMILES beside them. *: point of attachment. Arg(NO2) = N=C(NCCC[C@H](N)C(=O)O)N[N+](=O)[O-]; Gly(N-(CH2)3-guanidino) = N=C(N)NCCCNCC(=O)O; Arg(Me2a) = CN(C)C(=N)NCCC[C@H](N)C(=O)O; X1 = F[B-]1(F)n2c(ccc2*)C=C2C=CC=[N+]21
What was measured:
[1] = tested on: Escherichia coli; test: Antimicrobial activity against delta-sbmA deletion mutant containing Escherichia coli BW25113 incubated for 18 hrs at 37 degC by broth microdilution method; format: functional; details: BW25113, 18 h
[2] = tested on: Escherichia coli; test: Antimicrobial activity against Escherichia coli ATCC 25922 incubated for 18 hrs at 37 degC by broth microdilution method; format: functional; details: ATCC 25922, 18 h
[3] = tested on: Escherichia coli; test: Antimicrobial activity against delta-waaG deletion mutant containing Escherichia coli BW25113 incubated for 18 hrs at 37 degC by broth microdilution method; format: functional; details: BW25113, 18 h
[4] = tested on: Escherichia coli; test: Antimicrobial activity against O-antigen lacking LPS containing wild type Escherichia coli BW25113 incubated for 18 hrs at 37 degC by broth microdilution method; format: functional; details: BW25113, 18 h
[5] = tested on: Escherichia coli; test: Antimicrobial activity against Escherichia coli HB101 incubated for 18 hrs at 37 degC by broth microdilution method; format: functional; details: HB101, 18 h
[6] = tested on: Escherichia coli; test: Drug uptake in Escherichia coli ATCC 25922 assessed as mean fluorescence intensity using BODIPY-labeled compound at 0.25 to 4 uM incubated for 10 mins by flow cytometry; format: ADME, organism-based; details: in vivo
[7] = tested on: Escherichia coli; test: Drug uptake in Escherichia coli ATCC 25922 assessed as mean fluorescence intensity using BODIPY-labeled compound at 0.25 to 4 uM incubated for 10 mins in presence of trypan blue quencher by flow cytometry; format: ADME, organism-based; details: in vivo
[8] = tested on: Escherichia coli; test: Drug uptake in O-antigen lacking LPS containing wild type Escherichia coli BW25113 at 1 uM up to 3.5 hrs in presence of trypan blue quencher; format: ADME, organism-based; details: in vivo
[9] = tested on: Escherichia coli; test: Drug uptake in Escherichia coli ATCC 25922 assessed as mean fluorescence intensity using BODIPY-labeled compound at 0.25 to 4 uM incubated for 60 mins in presence of trypan blue quencher by flow cytometry; format: ADME, organism-based; details: in vivo, 1 h
[10] = tested on: Escherichia coli; test: Drug uptake in Escherichia coli ATCC 25922 assessed as mean fluorescence intensity using BODIPY-labeled compound at 0.25 to 4 uM incubated for 60 mins by flow cytometry; format: ADME, organism-based; details: in vivo, 1 h
[11] = tested on: Escherichia coli; test: Bacteriostatic activity against O-antigen lacking LPS containing wild type Escherichia coli BW25113 at 4 uM incubated for 3.5 hrs; format: functional, organism-based
[12] = tested on: Escherichia coli; test: Bacteriostatic activity against delta-waaG deletion mutant containing wild type Escherichia coli BW25113 at 4 uM incubated for 3.5 hrs; format: functional, organism-based

MIC [5] | Molecule | MIC [1] | MIC [2] | MIC [3] | MIC [4] | further results
64 µM | H-RRIRPRPPRLPRP-OH | – | > 128 µM | – | – | –
8 µM | H-RRIRPRPPRLPRPRPC-OH | – | 8 µM | – | – | –
128 µM | H-RRIRPRPPRLPRPC-OH | – | > 128 µM | – | – | –
16 µM | H-RRIRPRPPRLPRPRP-OH | – | 32 µM | – | – | –
1 µM (≈ 2.21 µg/mL) | CC[C@H](C)[C@H](NC(=O)[C@H](CCCNC(=N)N)NC(=O)[C@@H](N)CCCNC(=N)N)C(=O)N[C@@H](CCCNC(=N)N)C(=O)N1CCC[C@H]1C(=O)N[C@@H](CCCNC(=N)N)C(=O)N1CCC[C@H]1C(=O)N1CCC[C@H]1C(=O)N[C@@H](CCCNC(=N)N)C(=O)N[C@@H](CC(C)C)C(=O)N1CCC[C@H]1C(=O)N[C@@H](CCCNC(=N)N)C(=O)N1CCC[C@H]1C(=O)N[C@@H](CCCNC(=N)N)C(=O)N1CCC[C@H]1C(=O)N[C@@H](CSc1ccc2n1[B-](F)(F)[N+]1=CC=CC1=C2)C(=O)O (H-RRIRPRPPRLPRPRPC(X1)-OH) | – | 1 µM (≈ 2.21 µg/mL) | – | – | Drug uptake [6]: Not Active; Drug uptake [7]: Not Active; Drug uptake [9]: Not Active; Drug uptake [10]: Not Active

The remaining lines, values behind:

Molecule | MIC [5] | MIC [1] | MIC [2] | MIC [3] | MIC [4] | further results
CC[C@H](C)[C@H](NC(=O)CN(CCCNC(=N)N)C(=O)CNCCCNC(=N)N)C(=O)N[C@@H](CCCNC(=N)N)C(=O)N1CCC[C@H]1C(=O)N[C@@H](CCCNC(=N)N)C(=O)N1CCC[C@H]1C(=O)N1CCC[C@H]1C(=O)N[C@@H](CCCNC(=N)N)C(=O)N[C@@H](CC(C)C)C(=O)N1CCC[C@H]1C(=O)N[C@@H](CCCNC(=N)N)C(=O)N1CCC[C@H]1C(=O)N[C@@H](CCCNC(=N)N)C(=O)N1CCC[C@H]1C(=O)N[C@@H](CCCNC(=N)N)C(=O)N1CCC[C@H]1C(=O)N[C@@H](CC(C)C)C(=O)N1CCC[C@H]1C(=O)N[C@@H](Cc1ccc(O)cc1)C(=O)N1CCC[C@H]1C(=O)N[C@@H](CCCNC(=N)N)C(=O)N1CCC[C@H]1C(=O)O (H-[Gly(N-(CH2)3-guanidino)][Gly(N-(CH2)3-guanidino)]IRPRPPRLPRPRPRPLPYPRP-OH) | – | 8 µM (≈ 23.2 µg/mL) | 1 µM (≈ 2.9 µg/mL) | 0.5 µM (≈ 1.45 µg/mL) | 0.5 µM (≈ 1.45 µg/mL) | –
CC[C@H](C)[C@H](NC(=O)[C@H](CCCNC(=N)N)NC(=O)[C@@H](N)CCCNC(=N)N(C)C)C(=O)N[C@@H](CCCNC(=N)N)C(=O)N1CCC[C@H]1C(=O)N[C@@H](CCCNC(=N)N)C(=O)N1CCC[C@H]1C(=O)N1CCC[C@H]1C(=O)N[C@@H](CCCNC(=N)N)C(=O)N[C@@H](CC(C)C)C(=O)N1CCC[C@H]1C(=O)N[C@@H](CCCNC(=N)N)C(=O)N1CCC[C@H]1C(=O)N[C@@H](CCCNC(=N)N)C(=O)N1CCC[C@H]1C(=O)N[C@@H](CCCNC(=N)N)C(=O)N1CCC[C@H]1C(=O)N[C@@H](CC(C)C)C(=O)N1CCC[C@H]1C(=O)N[C@@H](Cc1ccc(O)cc1)C(=O)N1CCC[C@H]1C(=O)N[C@@H](CCCNC(=N)N)C(=O)N1CCC[C@H]1C(=O)O (H-[Arg(Me2a)]RIRPRPPRLPRPRPRPLPYPRP-OH) | – | 8 µM (≈ 23.4 µg/mL) | 2 µM (≈ 5.85 µg/mL) | 0.5 µM (≈ 1.46 µg/mL) | 2 µM (≈ 5.85 µg/mL) | –
CC[C@H](C)[C@H](NC(=O)[C@H](CCCNC(=N)N)NC(=O)[C@@H](N)CCCNC(=N)N)C(=O)N[C@@H](CCCNC(=N)N)C(=O)N1CCC[C@H]1C(=O)N[C@@H](CCCNC(=N)N)C(=O)N1CCC[C@H]1C(=O)N1CCC[C@H]1C(=O)N[C@@H](CCCNC(=N)N)C(=O)N[C@@H](CC(C)C)C(=O)N1CCC[C@H]1C(=O)N[C@@H](CCCNC(=N)N)C(=O)N1CCC[C@H]1C(=O)N[C@@H](CCCNC(=N)N)C(=O)N1CCC[C@H]1C(=O)N[C@@H](CCCNC(=N)N)C(=O)N[C@@H](CSc1ccc2n1[B-](F)(F)[N+]1=CC=CC1=C2)C(=O)O (H-RRIRPRPPRLPRPRPRC(X1)-OH) | 0.5 µM (≈ 1.18 µg/mL) | – | 0.5 µM (≈ 1.18 µg/mL) | – | – | –
H-KKIRPRPPRLPRPRPRPLPYPRP-OH | – | 16 µM | 4 µM | 2 µM | 4 µM | –
CC[C@H](C)[C@H](NC(=O)[C@H](CCCNC(=N)N)NC(=O)[C@@H](N)CCCN/C(N)=N\[N+](=O)[O-])C(=O)N[C@@H](CCCNC(=N)N)C(=O)N1CCC[C@H]1C(=O)N[C@@H](CCCNC(=N)N)C(=O)N1CCC[C@H]1C(=O)N1CCC[C@H]1C(=O)N[C@@H](CCCNC(=N)N)C(=O)N[C@@H](CC(C)C)C(=O)N1CCC[C@H]1C(=O)N[C@@H](CCCNC(=N)N)C(=O)N1CCC[C@H]1C(=O)N[C@@H](CCCNC(=N)N)C(=O)N1CCC[C@H]1C(=O)N[C@@H](CCCNC(=N)N)C(=O)N1CCC[C@H]1C(=O)N[C@@H](CC(C)C)C(=O)N1CCC[C@H]1C(=O)N[C@@H](Cc1ccc(O)cc1)C(=O)N1CCC[C@H]1C(=O)N[C@@H](CCCNC(=N)N)C(=O)N1CCC[C@H]1C(=O)O (H-[Arg(NO2)]RIRPRPPRLPRPRPRPLPYPRP-OH) | – | 8 µM (≈ 23.5 µg/mL) | 4 µM (≈ 11.8 µg/mL) | 1 µM (≈ 2.94 µg/mL) | 4 µM (≈ 11.8 µg/mL) | –
H-RRIRPRPPRLPRPRPR-OH | 0.5 µM | – | 0.5 µM | – | – | –
CC[C@H](C)[C@H](NC(=O)[C@@H](CCCNC(=N)N)NC(=O)[C@H](N)CCCNC(=N)N)C(=O)N[C@@H](CCCNC(=N)N)C(=O)N1CCC[C@H]1C(=O)N[C@@H](CCCNC(=N)N)C(=O)N1CCC[C@H]1C(=O)N1CCC[C@H]1C(=O)N[C@@H](CCCNC(=N)N)C(=O)N[C@@H](CC(C)C)C(=O)N1CCC[C@H]1C(=O)N[C@@H](CCCNC(=N)N)C(=O)N1CCC[C@H]1C(=O)N[C@@H](CCCNC(=N)N)C(=O)N1CCC[C@H]1C(=O)N[C@@H](CCCNC(=N)N)C(=O)N1CCC[C@H]1C(=O)N[C@@H](CC(C)C)C(=O)N1CCC[C@H]1C(=O)N[C@@H](Cc1ccc(O)cc1)C(=O)N1CCC[C@H]1C(=O)N[C@@H](CCCNC(=N)N)C(=O)N1CCC[C@H]1C(=O)O | – | 16 µM (≈ 46.4 µg/mL) | 4 µM (≈ 11.6 µg/mL) | 2 µM (≈ 5.8 µg/mL) | 4 µM (≈ 11.6 µg/mL) | –
CC[C@H](C)[C@H](NC(=O)[C@H](CCCNC(=N)N(C)C)NC(=O)[C@@H](N)CCCNC(=N)N(C)C)C(=O)N[C@@H](CCCNC(=N)N)C(=O)N1CCC[C@H]1C(=O)N[C@@H](CCCNC(=N)N)C(=O)N1CCC[C@H]1C(=O)N1CCC[C@H]1C(=O)N[C@@H](CCCNC(=N)N)C(=O)N[C@@H](CC(C)C)C(=O)N1CCC[C@H]1C(=O)N[C@@H](CCCNC(=N)N)C(=O)N1CCC[C@H]1C(=O)N[C@@H](CCCNC(=N)N)C(=O)N1CCC[C@H]1C(=O)N[C@@H](CCCNC(=N)N)C(=O)N1CCC[C@H]1C(=O)N[C@@H](CC(C)C)C(=O)N1CCC[C@H]1C(=O)N[C@@H](Cc1ccc(O)cc1)C(=O)N1CCC[C@H]1C(=O)N[C@@H](CCCNC(=N)N)C(=O)N1CCC[C@H]1C(=O)O (H-[Arg(Me2a)][Arg(Me2a)]IRPRPPRLPRPRPRPLPYPRP-OH) | – | 16 µM (≈ 47.3 µg/mL) | 8 µM (≈ 23.6 µg/mL) | 2 µM (≈ 5.91 µg/mL) | 8 µM (≈ 23.6 µg/mL) | –
CC[C@H](C)[C@H](NC(=O)[C@H](CCCNC(=N)N(C)C)NC(=O)[C@@H](N)CCCNC(=N)N)C(=O)N[C@@H](CCCNC(=N)N)C(=O)N1CCC[C@H]1C(=O)N[C@@H](CCCNC(=N)N)C(=O)N1CCC[C@H]1C(=O)N1CCC[C@H]1C(=O)N[C@@H](CCCNC(=N)N)C(=O)N[C@@H](CC(C)C)C(=O)N1CCC[C@H]1C(=O)N[C@@H](CCCNC(=N)N)C(=O)N1CCC[C@H]1C(=O)N[C@@H](CCCNC(=N)N)C(=O)N1CCC[C@H]1C(=O)N[C@@H](CCCNC(=N)N)C(=O)N1CCC[C@H]1C(=O)N[C@@H](CC(C)C)C(=O)N1CCC[C@H]1C(=O)N[C@@H](Cc1ccc(O)cc1)C(=O)N1CCC[C@H]1C(=O)N[C@@H](CCCNC(=N)N)C(=O)N1CCC[C@H]1C(=O)O (H-R[Arg(Me2a)]IRPRPPRLPRPRPRPLPYPRP-OH) | – | 8 µM (≈ 23.4 µg/mL) | 4 µM (≈ 11.7 µg/mL) | 1 µM (≈ 2.93 µg/mL) | 4 µM (≈ 11.7 µg/mL) | –
CC[C@H](C)[C@H](NC(=O)[C@H](CCCNC(=N)N)NC(=O)[C@@H](N)CCCNC(=N)N)C(=O)N[C@@H](CCCNC(=N)N)C(=O)N1CCC[C@H]1C(=O)N[C@@H](CCCNC(=N)N)C(=O)N1CCC[C@H]1C(=O)N1CCC[C@H]1C(=O)N[C@@H](CCCNC(=N)N)C(=O)N[C@@H](CC(C)C)C(=O)N1CCC[C@H]1C(=O)N[C@@H](CCCNC(=N)N)C(=O)N1CCC[C@H]1C(=O)N[C@@H](CCCNC(=N)N)C(=O)N1CCC[C@H]1C(=O)N[C@@H](CCCNC(=N)N)C(=O)N1CCC[C@H]1C(=O)N[C@@H](CC(C)C)C(=O)N1CCC[C@H]1C(=O)N[C@@H](Cc1ccccc1)C(=O)N1CCC[C@H]1C(=O)N[C@@H](CCCNC(=N)N)C(=O)N1CCC[C@H]1C(=O)N[C@@H](CSc1ccc2n1[B-](F)(F)[N+]1=CC=CC1=C2)C(=O)O (H-RRIRPRPPRLPRPRPRPLPFPRPC(X1)-OH) | – | – | – | – | – | Drug uptake [6]: Active; Drug uptake [7]: Active; Drug uptake [8]: Not Active; Drug uptake [9]: Active; Drug uptake [10]: Active
H-IRPRPPRLPRPRPRPLPYPRP-OH | – | 32 µM | 8 µM | 4 µM | 8 µM | Activity [11]: Active; Activity [12]: Active

Source: ChEMBL document CHEMBL3407397, “Effect of size and N-terminal residue characteristics on bacterial cell penetration and antibacterial activity of the proline-rich peptide Bac7” (J Med Chem, 2015)
